# Reference: the supplement of paper PMC8920030
# What was measured:
# Conditions in all cases: growth mode: biofilm, 24 h; exposure time: 24 h
# colistin [1] = compound: T1, CCC(C)CCCC(=O)N[C@@H](CCN)C(=O)N[C@H](C(=O)N[C@@H](CCN)C(=O)N[C@H]1CCNC(=O)[C@H]([C@@H](C)O)NC(=O)[C@H](CCN)NC(=O)[C@H](CCN)NC(=O)[C@H](CC(C)C)NC(=O)[C@@H](CC(C)C)NC(=O)[C@H](CCN)NC1=O)[C@@H](C)O [colistin]; experiment: minimum concentration of killing, 4-log CFU reduction of biofilm (MCK99.99); higher = more biofilm tolerance
# Protocol: (§1)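 Clinical P. aeruginosa isolates were grown as static biofilms for 24 h at 37 °C in LB in half-area 96-well plates, then exposed for 24 h to colistin at 1, 4, 16, 64, 256 or […]. Surviving CFU were counted by spotting serial dilutions. MCK is the lowest tested concentration giving the stated log reduction in CFU versus an untreated control; '>1024' means the reduction was not reached at the top dose, and 1 is the lowest dose tested (≤1).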
# colistin [2] = compound: T1, colistin; experiment: minimum concentration of killing, 1-log CFU reduction of biofilm (MCK90); higher = more biofilm tolerance
# Protocol: as §1
# colistin [3] = compound: T1, colistin; experiment: minimum concentration eradicating biofilm below detection limit (MCK-E); higher = more biofilm tolerance
# Protocol: as §1
# tobramycin [4] = compound: T2, NC[C@H]1O[C@H](O[C@H]2[C@H](O)[C@@H](O[C@H]3O[C@H](CO)[C@@H](O)[C@H](N)[C@H]3O)[C@H](N)C[C@@H]2N)[C@H](N)C[C@@H]1O [tobramycin]; experiment: minimum concentration of killing, 2-log CFU reduction of biofilm (MCK99); higher = more biofilm tolerance
# Protocol: as §1, with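 “tobramycin” for “colistin”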
# tobramycin [5] = compound: T2, tobramycin; experiment: minimum concentration of killing, 4-log CFU reduction of biofilm (MCK99.99); higher = more biofilm tolerance
# Protocol: as §1, with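 “tobramycin” for “colistin”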
# colistin [6] = compound: T1, colistin; experiment: minimum concentration of killing, 2-log CFU reduction of biofilm (MCK99); higher = more biofilm tolerance
# Protocol: as §1
# tobramycin [7] = compound: T2, tobramycin; experiment: minimum concentration of killing, 1-log CFU reduction of biofilm (MCK90); higher = more biofilm tolerance
# Protocol: as §1, with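 “tobramycin” for “colistin”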
# tobramycin [8] = compound: T2, tobramycin; experiment: minimum concentration eradicating biofilm below detection limit (MCK-E); higher = more biofilm tolerance
# Protocol: as §1, with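 “tobramycin” for “colistin”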
Test System,minimum concentration of killing (colistin [1]),minimum concentration of killing (colistin [2]),minimum concentration eradicating biofilm below detection limit (colistin [3]),minimum concentration of killing (tobramycin [4]),minimum concentration of killing (tobramycin [5]),minimum concentration of killing (colistin [6]),minimum concentration of killing (tobramycin [7]),minimum concentration eradicating biofilm below detection limit (tobramycin [8])
Pseudomonas aeruginosa clinical isolate CH5621,256 µg/mL,256 µg/mL,256 µg/mL,1020 µg/mL,> 1020 µg/mL,256 µg/mL,64 µg/mL,> 1020 µg/mL
Pseudomonas aeruginosa clinical isolate ESP063,256 µg/mL,≤ 1 µg/mL,256 µg/mL,1020 µg/mL,> 1020 µg/mL,16 µg/mL,256 µg/mL,> 1020 µg/mL
Pseudomonas aeruginosa clinical isolate F1880,256 µg/mL,256 µg/mL,256 µg/mL,1020 µg/mL,1020 µg/mL,256 µg/mL,64 µg/mL,1020 µg/mL
Pseudomonas aeruginosa clinical isolate ESP024,256 µg/mL,4 µg/mL,256 µg/mL,4 µg/mL,16 µg/mL,4 µg/mL,≤ 1 µg/mL,64 µg/mL
Pseudomonas aeruginosa clinical isolate ESP059,256 µg/mL,64 µg/mL,256 µg/mL,4 µg/mL,256 µg/mL,256 µg/mL,≤ 1 µg/mL,256 µg/mL
Pseudomonas aeruginosa clinical isolate F1758,256 µg/mL,64 µg/mL,256 µg/mL,256 µg/mL,1020 µg/mL,256 µg/mL,16 µg/mL,1020 µg/mL
Pseudomonas aeruginosa clinical isolate ESP067,256 µg/mL,64 µg/mL,256 µg/mL,16 µg/mL,256 µg/mL,256 µg/mL,4 µg/mL,1020 µg/mL
Pseudomonas aeruginosa clinical isolate ESP028,256 µg/mL,256 µg/mL,256 µg/mL,256 µg/mL,1020 µg/mL,256 µg/mL,16 µg/mL,1020 µg/mL
Pseudomonas aeruginosa clinical isolate F2020,64 µg/mL,16 µg/mL,256 µg/mL,16 µg/mL,256 µg/mL,64 µg/mL,16 µg/mL,1020 µg/mL
Pseudomonas aeruginosa clinical isolate ESP072,256 µg/mL,64 µg/mL,256 µg/mL,16 µg/mL,256 µg/mL,256 µg/mL,4 µg/mL,256 µg/mL
Pseudomonas aeruginosa clinical isolate ESP034,256 µg/mL,256 µg/mL,256 µg/mL,16 µg/mL,1020 µg/mL,256 µg/mL,4 µg/mL,1020 µg/mL
